Converted amounts (≈) assume the structure as drawn. Like-named read-outs stand apart in the source and are kept apart here.
How the values were obtained:
HIV-1 (IIIB) = assay: Antiviral assay in MT-4 cells; format: cell-based
Method in brief: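 HIV-1 IIIB-infected MT-4 cells (fresh 1:250 virus stock dilution; mock-infected controls) incubated 5 days at 37 °C with serially diluted compounds in RPMI/10% FBS; 5 μM AZT as positive control. Cell viability read by CellTiter-Glo luminescence as measure of protection from viral replication.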

[1] = Cytotoxicity assay in MT-4 cells; format: cell-based; details: human; uninfected MT-4 cells, 5 days incubation, Cell Titer Glo; read-out: MT4 CC50
Method in brief: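 Uninfected MT-4 cells exposed to serially diluted compounds in RPMI with 10% FBS for 5 days at 37 °C. Viability by Cell Titer Glo chemiluminescence. Puromycin […] as baseline cytotoxicity control.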

physchem = format: physicochemical; details: ambient temperature, 5 mg/mL dose concentration; for solubility thermodynamic at 24 h / solubility thermodynamic: 23 °C, thermodynamic from solid; for solubility thermodynamic at 24 h: FaSSIF; for solubility thermodynamic: aqueous buffer; for Thermodynamic PBS Solubility (mg/mL) / solubility thermodynamic: PBS
Procedure: Approximately 7 mg of each test compound as a dry powder was placed in a vial. Aliquots were weighed out for each assay media at 2 hour and 24 hour time points, to be analyzed. The appropriate buffer (FaSSIF or PBS) was added to each vial such that the final dose concentration of 5 mg/mL was achieved. […] The plate was sealed with a pierceable heat seal and analyzed by HPLC-UV.
A system QC (0.01 mg/mL Caffeine in DMSO) was injected every 12-15 injections. […] Results are reported using data obtained at 280 nm. The resulting peak areas were plotted against the known concentrations from the calibration and the filtrates are quantified with respect to the linear regression using Agilent OpenLab Intelligent Reporting Software. The results are reported electronically in mg/mL.

[2] = Human immunodeficiency virus 1, MT4, 120 h, HIV-1 IIIB in MT-4 cells, 5 days incubation, Cell Titer Glo, read-out: MT4 EC50
[3] = Human immunodeficiency virus 1, IIIB, MT4, 120 h, read-out: MT4 EC50 (nM)

| SMILES | EC50 (HIV-1 (IIIB); [2]) [nM] | Thermodynamic PBS Solubility (mg/mL) (physchem) | solubility thermodynamic at 24 h (physchem) [µg/mL] | solubility thermodynamic (physchem) [µg/mL] | CC50 at 5 days [1] [nM] | EC50 (HIV-1 (IIIB); [3]) [nM] |
| --- | --- | --- | --- | --- | --- | --- |
| CCCCCCCCCCCCCCCCCC(=O)Oc1c2n(cc(C(=O)NCc3ccc(F)cc3F)c1=O)[C@@H]1CN(C2=O)[C@@H](C)CC[C@]12CC(C)=NO2 [Example 15, (3′S,5S,7′R)-10′-((2,4-difluorobenzyl)carbamoyl)-3,3′-dimethyl-1′,11′-dioxo-1′,4′,5′,11′-tetrahydro-3′H,4H,7′H-spiro[isoxazole-5,6′-[2,7]methanopyrido[1,2-a][1,4]diazonin]-12′-yl stearate] | 6.36 | <LOD | – | – | ≥ 50000 | – |
| COCCOCCOCCOC(=O)Oc1c2n(cc(C(=O)NCc3ccc(F)cc3F)c1=O)[C@@H]1CN(C2=O)[C@@H](C)CC[C@]12CC(OC)=NO2 [Example 3, (3′S,5S,7′R)-10′-((2,4-difluorobenzyl)carbamoyl)-3-methoxy-3′-methyl-1′,11′-dioxo-1′,4′,5′,11′-tetrahydro-3′H,4H,7′H-spiro[isoxazole-5,6′-[2,7]methanopyrido[1,2-a][1,4]diazonin]-12′-yl (2-(2-(2-methoxyethoxy)ethoxy)ethyl) carbonate] | 1.06 | – | 470 (≈ 679 µM) | – | 16300 | – |
| CC1=NO[C@@]2(CC[C@H](C)N3C[C@H]2n2cc(C(=O)NCc4ccc(F)cc4F)c(=O)c(O[C@@H](C)OC(=O)OC(C)C)c2C3=O)C1 (single isomer, unassigned) [Example 21] | 26.4 | – | 150 (≈ 243 µM) | – | ≥ 50000 | – |
| COCCOCCOC(=O)Oc1c2n(cc(C(=O)NCc3ccc(F)cc3F)c1=O)[C@@H]1CN(C2=O)[C@@H](C)CC[C@]12CC(C)=NO2 [Example 8, (3′S,5S,7′R)-10′-((2,4-difluorobenzyl)carbamoyl)-3,3′-dimethyl-1′,11′-dioxo-1′,4′,5′,11′-tetrahydro-3′H,4H,7′H-spiro[isoxazole-5,6′-[2,7]methanopyrido[1,2-a][1,4]diazonin]-12′-yl (2-(2-methoxyethoxy)ethyl) carbonate] | – | – | 486 (≈ 768 µM) | – | 11700 | 0.632 |
| COCCOC(=O)OCOc1c2n(cc(C(=O)NCc3ccc(F)cc3F)c1=O)[C@@H]1CN(C2=O)[C@@H](C)CC[C@]12CC(OC)=NO2 [Example 5, (((3′S,5S,7′R)-10′-((2,4-difluorobenzyl)carbamoyl)-3-methoxy-3′-methyl-1′,11′-dioxo-1′,4′,5′,11′-tetrahydro-3′H,4H,7′H-spiro[isoxazole-5,6′-[2,7]methanopyrido[1,2-a][1,4]diazonin]-12′-yl)oxy)methyl (2-methoxyethyl) carbonate] | 4.08 | – | 168 (≈ 265 µM) | 39 (≈ 61.5 µM) | 39800 | – |
| CC1=NO[C@@]2(CC[C@H](C)N3C[C@H]2n2cc(C(=O)NCc4ccc(F)cc4F)c(=O)c(OCOC(=O)OC(C)C)c2C3=O)C1 [Example 24, (((3′S,5S,7′R)-10′-((2,4-difluorobenzyl)carbamoyl)-3,3′-dimethyl-1′,11′-dioxo-1′,4′,5′,11′-tetrahydro-3′H,4H,7′H-spiro[isoxazole-5,6′-[2,7]methanopyrido[1,2-a][1,4]diazonin]-12′-yl)oxy)methyl isopropyl carbonate] | 5.17 | – | 8 (≈ 13.3 µM) | – | 31700 | – |
| CC1=NO[C@@]2(CC[C@H](C)N3C[C@H]2n2cc(C(=O)NCc4ccc(F)cc4F)c(=O)c(O[C@H](C)OC(=O)OC(C)C)c2C3=O)C1 (single isomer, unassigned) [Example 20] | 11.5 | – | 70 (≈ 114 µM) | – | 35000 | – |
| COC1=NO[C@@]2(CC[C@H](C)N3C[C@H]2n2cc(C(=O)NCc4ccc(F)cc4F)c(=O)c(OC(=O)CCCCCCCCCCCCCCCCC(=O)O)c2C3=O)C1 [Example 77, 18-(((3′S,5S,7′R)-10′-((2,4-difluorobenzyl)carbamoyl)-3-methoxy-3′-methyl-1′,11′-dioxo-1′,4′,5′,11′-tetrahydro-3′H,4H,7′H-spiro[isoxazole-5,6′-[2,7]methanopyrido[1,2-a][1,4]diazonin]-12′-yl)oxy)-18-oxooctadecanoic acid] | 0.658 | – | – | – | ≥ 50000 | – |
| CCCOC(=O)OCOc1c2n(cc(C(=O)NCc3ccc(F)cc3F)c1=O)[C@@H]1CN(C2=O)[C@@H](C)CC[C@]12CC(C)=NO2 [Example 174, (((3′S,5S,7′R)-10′-((2,4-difluorobenzyl)carbamoyl)-3,3′-dimethyl-1′,11′-dioxo-1′,4′,5′,11′-tetrahydro-3′H,4H,7′H-spiro[isoxazole-5,6′-[2,7]methanopyrido[1,2-a][1,4]diazonin]-12′-yl)oxy)methyl propyl carbonate] | 2.4 | – | – | – | 18100 | – |
| CCCCCCCCOC(=O)OCOc1c2n(cc(C(=O)NCc3ccc(F)cc3F)c1=O)[C@@H]1CN(C2=O)[C@@H](C)CC[C@]12CC(C)=NO2 [Example 178, (((3′S,5S,7′R)-10′-((2,4-difluorobenzyl)carbamoyl)-3,3′-dimethyl-1′,11′-dioxo-1′,4′,5′,11′-tetrahydro-3′H,4H,7′H-spiro[isoxazole-5,6′-[2,7]methanopyrido[1,2-a][1,4]diazonin]-12′-yl)oxy)methyl octyl carbonate] | – | – | – | – | 15800 | 2.64 |
| CCCCCCCCCCCC(=O)OCOc1c2n(cc(C(=O)NCc3ccc(F)cc3F)c1=O)[C@@H]1CN(C2=O)[C@@H](C)CC[C@]12CC(OC)=NO2 [Example 101, (((3′S,5S,7′R)-10′-((2,4-difluorobenzyl)carbamoyl)-3-methoxy-3′-methyl-1′,11′-dioxo-1′,4′,5′,11′-tetrahydro-3′H,4H,7′H-spiro[isoxazole-5,6′-[2,7]methanopyrido[1,2-a][1,4]diazonin]-12′-yl)oxy)methyl dodecanoate] | 5.79 | – | – | – | ≥ 50000 | – |
| CCCCCCCC(=O)OCOc1c2n(cc(C(=O)NCc3ccc(F)cc3F)c1=O)[C@@H]1CN(C2=O)[C@@H](C)CC[C@]12CC(C)=NO2 [Example 96, (((3′S,5S,7′R)-10′-((2,4-difluorobenzyl)carbamoyl)-3,3′-dimethyl-1′,11′-dioxo-1′,4′,5′,11′-tetrahydro-3′H,4H,7′H-spiro[isoxazole-5,6′-[2,7]methanopyrido[1,2-a][1,4]diazonin]-12′-yl)oxy)methyl octanoate] | 0.562 | – | – | – | ≥ 50000 | – |

Now from value to compound, other results behind:

| EC50 (HIV-1 (IIIB); [2]) [nM] | Thermodynamic PBS Solubility (mg/mL) (physchem) | solubility thermodynamic at 24 h (physchem) [µg/mL] | solubility thermodynamic (physchem) [µg/mL] | SMILES | CC50 at 5 days [1] [nM] | EC50 (HIV-1 (IIIB); [3]) [nM] |
| --- | --- | --- | --- | --- | --- | --- |
| 1.28 | <LOD | – | – | CCCCC(=O)Oc1c2n(cc(C(=O)NCc3ccc(F)cc3F)c1=O)[C@@H]1CN(C2=O)[C@@H](C)CC[C@]12CC(C)=NO2 [Example 17, (3′S,5S,7′R)-10′-((2,4-difluorobenzyl)carbamoyl)-3,3′-dimethyl-1′,11′-dioxo-1′,4′,5′,11′-tetrahydro-3′H,4H,7′H-spiro[isoxazole-5,6′-[2,7]methanopyrido[1,2-a][1,4]diazonin]-12′-yl pentanoate] | 10200 | – |
| 1.53 | – | 83 (≈ 145 µM) | – | CC1=NO[C@@]2(CC[C@H](C)N3C[C@H]2n2cc(C(=O)NCc4ccc(F)cc4F)c(=O)c(OC(=O)C(C)(C)C)c2C3=O)C1 [Example 19, (3′S,5S,7′R)-10′-((2,4-difluorobenzyl)carbamoyl)-3,3′-dimethyl-1′,11′-dioxo-1′,4′,5′,11′-tetrahydro-3′H,4H,7′H-spiro[isoxazole-5,6′-[2,7]methanopyrido[1,2-a][1,4]diazonin]-12′-yl pivalate] | 12300 | – |
| 0.992 | – | 70 (≈ 122 µM) | 34 (≈ 59.4 µM) | CC1=NO[C@@]2(CC[C@H](C)N3C[C@H]2n2cc(C(=O)NCc4ccc(F)cc4F)c(=O)c(OC(=O)OC(C)C)c2C3=O)C1 [Example 22, (3′S,5S,7′R)-10′-((2,4-difluorobenzyl)carbamoyl)-3,3′-dimethyl-1′,11′-dioxo-1′,4′,5′,11′-tetrahydro-3′H,4H,7′H-spiro[isoxazole-5,6′-[2,7]methanopyrido[1,2-a][1,4]diazonin]-12′-yl isopropyl carbonate] | 12500 | – |
| 0.403 | – | – | – | CCCCCC(=O)Oc1c2n(cc(C(=O)NCc3ccc(F)cc3F)c1=O)[C@@H]1CN(C2=O)[C@@H](C)CC[C@]12CC(C)=NO2 [Example 37, (3′S,5S,7′R)-10′-((2,4-difluorobenzyl)carbamoyl)-3,3′-dimethyl-1′,11′-dioxo-1′,4′,5′,11′-tetrahydro-3′H,4H,7′H-spiro[isoxazole-5,6′-[2,7]methanopyrido[1,2-a][1,4]diazonin]-12′-yl hexanoate] | 17400 | – |
| 1.73 | – | – | – | CCOC(=O)Oc1c2n(cc(C(=O)NCc3ccc(F)cc3F)c1=O)[C@@H]1CN(C2=O)[C@@H](C)CC[C@]12CC(C)=NO2 [Example 123, (3′S,5S,7′R)-10′-((2,4-difluorobenzyl)carbamoyl)-3,3′-dimethyl-1′,11′-dioxo-1′,4′,5′,11′-tetrahydro-3′H,4H,7′H-spiro[isoxazole-5,6′-[2,7]methanopyrido[1,2-a][1,4]diazonin]-12′-yl ethyl carbonate] | 14100 | – |
